Source: patent US7923004B2 (priority 2006, dated 2011)

How the values were obtained:
[1] = test system: HCV genotype 1b replicon (Huh-Luc-Neo cells); assay: HCV Replicon Luciferase Assay; type: cell-based; conditions: Hepatitis C virus, Huh-Luc-Neo cells, genotype 1b, 72 h, read-out: HCV-1b Replicon Inhibition*, Luciferase (EC50)
[2] = test system: HCV genotype 1b replicon (Huh-Luc-Neo cells); assay: HCV Replicon RNA (Taqman) Assay, genotype 1b; type: cell-based; conditions: Hepatitis C virus, Huh-Luc-Neo cells, genotype 1b, HCV RNA, 72 h, read-out: HCV-1b Replicon Inhibition*, Taqman (EC50)
[3] = Cell Titer-Glo Cell Viability Assay, genotype 1b cells; type: cell-based; conditions: human, Huh-Luc-Neo (HCV genotype 1b replicon) cells, HCV genotype 1b assays, read-out: Cytotoxicity* (CC50)
Protocol: Cell Seeding and Compound Treatment: Huh-Luc-Neo (Genotype 1b) or En5-3/Htat2ANeo (Genotype 1a) cells are seeded at 5000-7000/well in an opaque-walled 96 plate with Growth Medium (DMEM phenol red free+PS+2 mM glutamine; 100 ul/well). The compounds to be tested for inhibition of cell viability are added to the experimental wells so as to generate a dose response curve (8-9 concentrations, 10 μl/well at 10× assay concentration) and the cells are then incubated (5% CO2, 37° C.) for 72 h.
Reagent Preparation and Assay: After completion of the incubation period the cell viability measurements are made using the Cell Titre Glo Assay (Promega) according to the manufacturer's recommended protocol. Briefly, the CellTiter-Glo Buffer is thawed and equilibrated to room temperature prior to use. The lyophilized CellTiter-Glo Substrate is also equilibrated to room temperature prior to use. 10 ml of CellTiter-Glo Buffer is then transferred to 1 vial of CellTiter-Glo Substrate and mixed gently with a Vortex. 100 μl of CellTiter-Glo Assay reagent (CellTiter-Glo Buffer+CellTiter-Glo Substrate Mixture) is added to each well. The well contents are mixed for 5 min. on an orbital shaker at room temperature to induce cell lysis and the luminescence is then measured using a luminometer.

[4] = test system: HCV Genotype 1b luc-neo/ET replicon with Y2065H mutation in NS5A; assay: Luciferase EC50 in Huh7-Lunet cells with luc-neo/ET/Y2065H mutant vs parental luc-neo/ET replicon; type: cell-based; conditions: transient replicons, 72 h
Protocol: Resistance of Compound #64 (Table 1) and related pyrazoles was then determined by treating Huh7-Lunet cells (Koutsoudakis et al, J. Virol. 81(2):588-98, 2007) transiently electroporated with RNAs transcribed from either the luc-neo/ET/Y2065H mutant and the parental luc-neo/ET replicons (Blight et al, J. Virol. 77(5):3181-90, 2003). Huh7-Lunet expressing the luc-neo/ET/Y2065H mutant and the parental luc-neo/ET replicons were treated with selected compounds for 72 hours. EC50 and CC50 values were determined as described in the HCV Replicon Luciferase Assay and CellTiter-Glo Cell Viability Assay protocols. […] CC50s for the compound vs. the luc-neo/ETIY2065H mutant and parental luc-neo/ET replicons were determined to be>33 μM.

[5] = test system: Compound #64 resistant HCV 1b replicon cell lines vs wild type Huh-Luc-Neo replicon; assay: EC50 determination (HCV RNA, quantitative PCR) in resistant vs wild type replicon clones; type: cell-based, HCV genotype 1b
Protocol: An HCV Replicon cell line (luc-neo/ET) and assay (Lohman et al, Science 1999, 285, 110) was used in the present invention. Specifically the HCV 1b Replicon cell line Huh-Luc-Neo was subjected to resistance selection by growth in culture in the presence of Compound #64 (Table 1) according to methods described by Mo et al., Antimicro. Agents Chemotherapy, 49, 4305-4314, 2005. Huh-Luc-Neo cells were initially subjected to selection with 0.5 μM Compound #64 (Table 1) and selection pressure was increased gradually up to 2 μM COMPOUND #64 (TABLE 1) over a period of 7 to 9 weeks and 5 cell lines derived from individual colonies were isolated and expanded. A specific clone resistant to 2 μM Compound #64 (Table 1) (Clone Comp.64-10R4) was the subjected to further selection pressure at increasing concentrations of Compound #64 (Table 1) and a replicon resistant to 10 μM Compound #64 (Table 1) was isolated (Clone Comp.64-50R4). The wild type Huh-Luc-Neo replicon cell line was cultured in parallel with the selections and characterized in a similar fashion to the resistant clones.
(§1) EC50 determinations were performed with Compound #64 (Table 1) vs. the wild type Huh-Luc-Neo replicon cell line and the 5 resistant replicon cell lines. Resistant and wild type replicons were plated in 96 well plates (5000-7000 cells/well) and treated with compound at varying concentrations (Compound #64 (Table 1)) for 72 hours. Cells were then lysed and RNA was isolated (Qiagen RNA Easy 96 kit) according to the manufacturer's recommendations. HCV RNA levels were then measured and EC50 values were determined by cDNA synthesis and quantitative PCR using HCV specific primers and GAPDH primers as controls (Example 55, Lohman et al, Science 1999, 285, 110). The effect of the compounds on inhibition of cell viability was performed on cells treated in parallel with using the Cell Titre Glo Assay Kit (Promega) according to the manufacturer's recommendations (Example 56). CC50s for the compound vs. the wild type and resistant replicons were determined to be >50 μM.

[6] = Cell Titre Glo cell viability on wild type and resistant replicons; type: cell-based; conditions: human
Protocol: as §1

[7] = test system: replicon resistant to 10 μM Compound #64 vs wild type Huh-7 Luc-ubi-neo/ET replicon; assay: Cross resistance of Compound #64 resistant replicon; type: cell-based, HCV genotype 1b; conditions: for EC50 Resistant Replicon/EC50 Wild Type Replicon: replicon resistant to 10 μM Compound #64 vs wild type Huh-7 Luc-ubi-neo/ET replicon

| Compound | CC50 at 72 h [3] | EC50 Luc-neo-ET-Y2065H/EC50 Luc-neo-ET [4] | EC50 [1] | EC50 [2] | EC50 Resistant Replicon/EC50 Wild Type Replicon [7] | other results |
| --- | --- | --- | --- | --- | --- | --- |
| Cc1ccc(O)c(-c2nn(C)cc2C#Cc2ccc(NC(=O)[C@@H]3COCCN3C(=O)[C@H](NC(=O)OC(C)(C)C)c3ccccc3)cc2)c1 [Compound 23A] | > 100000 nM | 6 | – | – | – | EC50 ([1]; GETYPE1B): < 1000 nM; EC50 ([2]; GETYPE1B): < 1000 nM |
| Cc1ccc(O)c(-c2nn(C)cc2C#Cc2ccc(NC(=O)[C@H]3CCCCN3C(=O)C(NC(=O)OC(C)(C)C)c3ccccc3)cc2)c1 (stereo partly drawn) [64 (Table 1)] | > 100000 nM | >65 | < 1000 nM | < 1000 nM | – | EC50 shift, resistant replicon vs wild type replicon ([5]; replicon resistant to 10 μM Compound #64, second NS5A mutation Y2065H): > 75 fold; EC50 Resistant Replicon/EC50 Wild Type Replicon ([5]; resistant clone Comp. 64-10R3, resistant conc. 2 μM): 1.5; EC50 Resistant Replicon/EC50 Wild Type Replicon ([5]; resistant clone Comp. 64-10R4, resistant conc. 2 μM): 3.48; EC50 Resistant Replicon/EC50 Wild Type Replicon ([5]; resistant clone Comp. 64-10R5, resistant conc. 2 μM): 2.92; EC50 Resistant Replicon/EC50 Wild Type Replicon ([5]; resistant clone Comp. 64-10R6, resistant conc. 2 μM): 2.18; EC50 Resistant Replicon/EC50 Wild Type Replicon ([5]; resistant clone Comp. 64-10R8, resistant conc. 2 μM): 3; EC50 Resistant Replicon/EC50 Wild Type Replicon ([5]; resistant clone Comp. 64-50R4, resistant conc. 10 μM): >75; CC50 at 72 h [6]: > 50000 nM |
| Cn1cc(C#Cc2ccc(NC(=O)[C@@H]3COCCN3C(=O)[C@H](NC(=O)C3CC3)c3ccccc3)cc2)c(-c2cc(Cl)ccc2O)n1 [Compound 52] | 10000 to 100000 nM | 79 | < 1000 nM | < 1000 nM | – | – |
| COc1ccc2c(O[C@@H]3C[C@H]4C(=O)N[C@]5(C(=O)O)C[C@H]5/C=C\CCCCC[C@H](NC(=O)OC5CCCC5)C(=O)N4C3)cc(-c3csc(NC(C)C)n3)nc2c1 [BILN 2061, reference compound] | – | – | – | – | 0.656 | – |
| Cc1ccc(O)c(-c2nn(C)cc2C#Cc2ccc(NC(=O)[C@@H]3COCCN3C(=O)[C@H](NC(=O)OC(C)(C)C)c3ccccc3)cc2)c1 | – | – | – | – | 7.125 | cross resistance in Compound #64 resistant replicon ([7]; replicon resistant to 10 μM Compound #64): cross resistant |
| Cn1cc(C#Cc2ccc(NC(=O)[C@@H]3COCCN3C(=O)[C@H](NC(=O)NC(C)(C)C)c3ccccc3)cc2)c(-c2cc(Cl)ccc2O)n1 [Compound 53] | 10000 to 100000 nM | 71 | < 1000 nM | < 1000 nM | – | – |
